Source: US20190032014A1, “USING MICROBIOTA METABOLITES TO DIFFERENTIATE NAÏVE T-CELLS AND RELATED METHODS TO INDUCE OR PREVENT INFLAMMATORY CONDITIONS” (THE TEXAS A&M UNIVERSITY SYSTEM, priority 2016, published 2019)
“Also recorded” adds a separate entry of the source.

Assays:
[1] = target: T1, aryl hydrocarbon receptor (AhR) (Homo sapiens, UniProt P35869); conditions: intestinal epithelial cells; Jin et al. 2014; cited from earlier work
T1 sequence (P35869 11-848): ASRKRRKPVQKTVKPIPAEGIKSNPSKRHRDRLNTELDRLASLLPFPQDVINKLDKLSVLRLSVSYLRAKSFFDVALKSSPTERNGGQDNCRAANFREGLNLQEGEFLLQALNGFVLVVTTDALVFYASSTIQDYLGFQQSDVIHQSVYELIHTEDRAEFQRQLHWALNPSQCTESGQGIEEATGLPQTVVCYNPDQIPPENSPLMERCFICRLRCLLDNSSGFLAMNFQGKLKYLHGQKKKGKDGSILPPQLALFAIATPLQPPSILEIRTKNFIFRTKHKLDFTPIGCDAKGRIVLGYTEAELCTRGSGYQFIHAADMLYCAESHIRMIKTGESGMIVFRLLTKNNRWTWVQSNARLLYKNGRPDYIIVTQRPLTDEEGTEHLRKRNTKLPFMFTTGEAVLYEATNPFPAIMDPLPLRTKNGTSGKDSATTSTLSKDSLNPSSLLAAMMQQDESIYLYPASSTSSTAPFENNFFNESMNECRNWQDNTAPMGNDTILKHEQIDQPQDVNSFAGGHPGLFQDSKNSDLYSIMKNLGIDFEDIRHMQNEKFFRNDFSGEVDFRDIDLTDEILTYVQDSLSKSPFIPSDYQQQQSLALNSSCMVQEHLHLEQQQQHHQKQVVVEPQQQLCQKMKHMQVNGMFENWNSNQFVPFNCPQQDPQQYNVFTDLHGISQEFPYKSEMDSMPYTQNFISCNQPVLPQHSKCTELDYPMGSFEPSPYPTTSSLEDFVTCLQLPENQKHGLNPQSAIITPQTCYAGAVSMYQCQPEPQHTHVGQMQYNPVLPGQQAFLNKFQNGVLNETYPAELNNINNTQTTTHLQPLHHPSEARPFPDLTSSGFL

CD4+ CD25− naïve T cells = experiment: In vitro naïve T cell differentiation, Th1-skew (IFN-γ+); assay type: cell-based, C57BL/6 mice; conditions: Th1 skewing conditions
Experimental: When naïve CD4+ CD25− cells were cultured 72 hours in αCD3/28 coated wells with Th0-, Th1- or Th2-skew cytokines and indole or solvent control, followed by stimulation with PMA, Ionomycin and Golgi Plug for the last 5 hours of culture, no effect on the % of Th1 and Th2 cells was observed (in contrast to the significant effect that indole has on Treg and Th17 cells; see FIGS. 2A and 2B).
CD4+ CD25− T cells were isolated to high purity (>98%) from the pooled spleen and mesenteric lymph nodes of C57BL/6 mice (Jackson Labs) with a BD FACS Aria II flow cytometer. Fc Block (BD), αCD4-efluor450 (eBioscience clone GK1.5) and αCD25-PECy7 (eBioscience clone PC61.5) antibodies were used for staining before sorting.
For Th1-skew: 5 ng/mL IL-12 (Peprotech cat. #210-12) and 10 µg/mL αIL-4 (BioXCell clone 11B11) were added to culture. For Th2-skew: 10 ng/mL IL-4 (Peprotech) and 10 μg/mL αIFN-γ (BioXCell clone R4-6A2) were added to culture. For Th17-skew: 10 ng/mL IL-6 (Peprotech), 5 ng/mL IL-23 (R&D), 0.5 ng/mL TGF-β (Peprotech), 10 μg/mL al-4 (BioXCell clone 11B11), and 10 μg/mL αIFN-γ (BioXCell clone R4-6A2) were added to culture. For Treg-skew: 2 ng/mL TGF-β (Peprotech) and 100 U/mL IL-2 (Roche) were added to culture. Sodium Propionate, sodium acetate, sodium butyrate and sodium chloride (all from Sigma-Aldrich) were solubilized in media and added to culture. Indole was solubilized in DMF (both from Sigma-Aldrich) at 2M and brought to final concentration in media. MGCD0103 (Selleck Chemicals) was solubilized in DMF at 2 mM and brought to final concentration in media. A 0.05% DMF solvent control was used for all experiments.

DSS colitis = DSS colitis model; conditions: 5% DSS 7 days, then indole 7 days; wild-type vs Rag-deficient mice
Experimental: FIG. 32A: Wild-type C57B16 mice were treated with 5% DSS, or not, in drinking water for 7 days. […] Individual mouse weight was recorded daily throughout experiment as a measure of inflammation. FIG. 32B: Mice were treated as in FIG. 32A, only mice were Rag-deficient mice, which lack lymphocytes (T- and B-cells).
For FIG. 32A, wild-type C57B16 mice were treated with 5% DSS, or not, in drinking water for 7 days. […] Individual mouse weight was recorded daily throughout experiment as a measure of inflammation. For FIG. 32B, Rag-deficient mice, which lack lymphocytes (T- and B-cells), were treated as in FIG. 32A and individual weight was recorded.

[2] = system: wild-type or AhR KO T cells; experiment: T cell differentiation in wild-type vs AhR KO T cells; assay type: cell-based, mice
Experimental: The aryl hydrocarbon receptor (AhR) is implicated in the differentiation of Treg and Th17 cells. The role of AhR was assessed with respect to indole's effect on Treg augmentation. Wild-type and AhR KO naïve T-cells were conditioned with increasing amounts of indole and then assessed for % of FoxP3 expression. […] Additionally, the role of AhR was assessed with respect to indole's effect on Th17 inhibition.
The AhR knockout was further investigated for iTreg homing markers, CD62L and α4β7, as described above.
Next, the AhR knockout was further investigated for the impact of AhR on 5-HI-mediated T cell differentiation.

Th17 transfer colitis = Th17 transfer colitis murine model; assay type: in vivo, Rag-null mice
Experimental: Finally, the presentation describes a study of the effects of an indole-induced iTreg skew on the course of colitis in a Th17 transfer colitis murine model. […] Briefly, naïve T-cells (CD4+CD25−) were cultured in vitro with cytokines to skew function towards a Th17 phenotype, in the presence of indole or 5-HI, or not. The skewed cultures were transferred to Rag-null mice (lack T- and B-lymphocytes); control mice received no T-cells. Mice were monitored for weight loss (as a measure of inflammation) over several weeks and assessed at indicated timepoints for T-cell phenotype.
The body weight of the mice was monitored from the time of cell transfer to the end point of day 49. […] Next, the Treg, Th17, and Th1 differentiation was assessed in cells obtained from the mesenteric lymph nodes (MLN) of mice administered directly with indole, 5-HI and control. These cells were determined/assayed by FACS for phenotype directly ex vivo from mice that were treated as in FIG. 28.

[3] = system: naïve T cells obtained from humans; experiment: Skewing of naïve T cells obtained from humans; assay type: cell-based
[4] = system: TGF-β receptor / pSMAD2/3; experiment: TGF-β receptor expression and SMAD2/3 activity; assay type: cell-based
Experimental: Indole and 5-HI were assessed for impact on TGF-β receptor expression and SMAD2/3 activity. […] Indole and 5-HI were also assessed for impact on IL-6 receptor levels and subsequent STAT3 activity.

[5] = MLN, D15 and D45, by the end point

## c1ccc2[nH]ccc2c1 [Indole, indole]
[1]
  AhR agonist/antagonist activity: acts as both an agonist and antagonist
CD4+ CD25− naïve T cells; regardless of 5-HI presence
  % IFN-γ+ cells, indole combined with butyrate: the % IFN-γ+ cells decreases
CD4+ CD25− naïve T cells; vs 5-HI alone
  % IFN-γ+ cells, indole combined with 5-HI: negated when 5-HI is combined with indole
CD4+ CD25− naïve T cells; vs solvent control
  effect on % Th1 cells (IFN-γ+): no effect; also recorded: did not influence the development of Th1 and Th2 cells; also recorded: did not affect the Th1 skewing of Th1 cells
DSS colitis
  colitis (mouse weight as measure of inflammation): inhibits colitis in a T-cell-dependent manner
[2]
  % IL-17+ in wild-type vs AhR KO T cells: decreased significantly more in wild-type over AhR KO T cells
  AhR dependence of effects (AhR knockout mice, unpublished data): some of the effects of indole are not AhR dependent
[2]; increasing amounts of test substance
  FoxP3+ % in wild-type vs AhR KO T cells: increased significantly more in wild-type over AhR KO T cells
[2]; with or without RA
  expression of CD62L and α4β7 in FoxP3+ wild-type or AhR KO T cells: roughly equivalent with only minor differences
Th17 transfer colitis; MLN, D15 and D45
  Treg differentiation in vivo (% FoxP3+ T cells and FoxP3+ levels, MLN): induced early differentiation of Treg differentiation in vivo
Th17 transfer colitis; [5]
  Th1 differentiation in vivo (% INF-γ+ T cells, Th1/Treg balance, MLN): suppresses Th1 differentiation in vivo
  Th17 differentiation in vivo (% IL-17+ T cells, Th17/Treg balance, MLN): suppresses Th17 differentiation in vivo
Th17 transfer colitis; mice receiving conditioned Th17 T cells, around day 43, end point day 49
  weight change (% from starting weight): increase in body weight
Th17 transfer colitis; mouse, in vivo
  Th17 transfer colitis in vivo (overall): inhibits the Th17 transfer colitis in vivo
[3]
  skewing effects on Tregs and Th17 cells in human cells: recapitulated on naïve T cells obtained from humans
[4]; TGF-β induced, vs 5-HI or DMF control
  % pSMAD2/3+ cells: higher
[4]; vs DMF control
  % TGF-β receptor+ cells: significantly increase
